Experimental data as given in publication PMC8253220, “Molecular design, synthesis and in vitro biological evaluation of thienopyrimidine–hydroxamic acids as chimeric kinase HDAC inhibitors: a challenging approach to combat cancer” (Journal of Enzyme Inhibition and Medicinal Chemistry, 2021).
Where “and” joins values, the source holds several entries; their conditions need not be identical. Equal entries are not always repeated.

Columns and labels:
[1] = tested on: full NCI 60 cell panel; assay: NCI one-dose screen, whole panel statistics; assay type: cell-based, human; conditions: 1.00E-5 Molar; for Mean Growth Percent: mean over panel
How it was run: (§1)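 Compounds were tested at a single dose of 10 μM across the full NCI-60 cell line panel. Growth was expressed as percent growth relative to untreated control cells, reported as percent inhibition.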

[2] = molecular target: EGFR (Homo sapiens, UniProt P00533); assay: In vitro EGFR tyrosine kinase inhibitory assay (Z'-LYTE, SelectScreen); assay type: biochemical; conditions: for inhibition at 0.0001 µM: 0.1 nM compound; for inhibition at 0.0001 µM / inhibition at 0.001 µM / inhibition at 0.01 µM / inhibition at 0.1 µM / inhibition at 1 µM: 10 μM ATP, read-out: % Inhibition mean, EGFR (ErbB1); for inhibition at 0.001 µM: 1 nM compound; for inhibition at 0.01 µM: 10 nM compound; for inhibition at 0.1 µM: 100 nM compound; for inhibition at 1 µM: 1000 nM compound; for IC50: read-out: IC50 in enzyme assays EGFR
How it was run: (§2)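 Z'-LYTE fluorescence coupled-enzyme format, read-out based on differential protease cleavage of phosphorylated vs non-phosphorylated peptide. Compounds screened at 10 µM single dose for % inhibition, then selected ones tested at 0.1 nM–10 µM for IC50 by curve fitting.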

[3] = molecular target: VEGFR-2 (Homo sapiens, UniProt P35968); assay: In vitro VEGFR-2 tyrosine kinase inhibitory assay (Z'-LYTE, SelectScreen); assay type: biochemical; conditions: 10 µM single dose
How it was run: as §2

[4] = tested on: Hela nuclear extracts; assay: Hela nuclear extract HDAC inhibitor assay (BPS Bioscience); assay type: biochemical; conditions: 10 µM
How it was run: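 HeLa nuclear extract (20-fold diluted) was incubated with […] HDAC Substrate 3, 5 µg BSA and compound (1% DMSO final) at 37 °C for 60 min, in duplicate. After 15 min with HDAC developer at room temperature, fluorescence was read at 360/460 nm and % activity normalized to no-compound and no-extract controls.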

[5] = tested on: NCI-H23; assay: NCI one-dose screen; assay type: cell-based, human; conditions: NSCLC NCI-H23, 10 µM single dose
How it was run: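 Each cell line received compound at 10 μM as part of the NCI one-dose protocol. Values reflect growth inhibition percent calculated from growth relative to untreated controls.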

[6] = tested on: SK-OV-3; assay: NCI one-dose screen; assay type: cell-based, human; conditions: Ovarian SK-OV-3, 10 µM single dose
How it was run: (§3)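 One concentration (10 μM) applied to each line of the full NCI-60 panel; percent growth compared against untreated cells.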

[7] = tested on: MDA-MB-435; assay: NCI one-dose screen; assay type: cell-based, human; conditions: Melanoma MDA-MB-435, 10 µM single dose
How it was run: as §3

[8] = tested on: K-562; assay: NCI one-dose screen; assay type: cell-based, human; conditions: Leukemia K-562, 10 µM single dose
How it was run: as §3

[9] = tested on: M14; assay: NCI one-dose screen; assay type: cell-based, human; conditions: Melanoma M14, 10 µM single dose
How it was run: as §3

[10] = tested on: IGROV1; assay: NCI one-dose screen; assay type: cell-based, human; conditions: Ovarian IGROV1, 10 µM single dose
How it was run: as §3

[11] = tested on: UACC-257; assay: NCI one-dose screen; assay type: cell-based, human; conditions: Melanoma UACC-257, 10 µM single dose
How it was run: as §1

[12] = tested on: T-47D; assay: NCI one-dose screen; assay type: cell-based, human; conditions: Breast T-47D, 10 µM single dose
How it was run: as §3

[13] = tested on: HCT-15; assay: NCI one-dose screen; assay type: cell-based, human; conditions: Colon HCT-15, 10 µM single dose
How it was run: as §3

Chain of EGFR (P00533 25-1210): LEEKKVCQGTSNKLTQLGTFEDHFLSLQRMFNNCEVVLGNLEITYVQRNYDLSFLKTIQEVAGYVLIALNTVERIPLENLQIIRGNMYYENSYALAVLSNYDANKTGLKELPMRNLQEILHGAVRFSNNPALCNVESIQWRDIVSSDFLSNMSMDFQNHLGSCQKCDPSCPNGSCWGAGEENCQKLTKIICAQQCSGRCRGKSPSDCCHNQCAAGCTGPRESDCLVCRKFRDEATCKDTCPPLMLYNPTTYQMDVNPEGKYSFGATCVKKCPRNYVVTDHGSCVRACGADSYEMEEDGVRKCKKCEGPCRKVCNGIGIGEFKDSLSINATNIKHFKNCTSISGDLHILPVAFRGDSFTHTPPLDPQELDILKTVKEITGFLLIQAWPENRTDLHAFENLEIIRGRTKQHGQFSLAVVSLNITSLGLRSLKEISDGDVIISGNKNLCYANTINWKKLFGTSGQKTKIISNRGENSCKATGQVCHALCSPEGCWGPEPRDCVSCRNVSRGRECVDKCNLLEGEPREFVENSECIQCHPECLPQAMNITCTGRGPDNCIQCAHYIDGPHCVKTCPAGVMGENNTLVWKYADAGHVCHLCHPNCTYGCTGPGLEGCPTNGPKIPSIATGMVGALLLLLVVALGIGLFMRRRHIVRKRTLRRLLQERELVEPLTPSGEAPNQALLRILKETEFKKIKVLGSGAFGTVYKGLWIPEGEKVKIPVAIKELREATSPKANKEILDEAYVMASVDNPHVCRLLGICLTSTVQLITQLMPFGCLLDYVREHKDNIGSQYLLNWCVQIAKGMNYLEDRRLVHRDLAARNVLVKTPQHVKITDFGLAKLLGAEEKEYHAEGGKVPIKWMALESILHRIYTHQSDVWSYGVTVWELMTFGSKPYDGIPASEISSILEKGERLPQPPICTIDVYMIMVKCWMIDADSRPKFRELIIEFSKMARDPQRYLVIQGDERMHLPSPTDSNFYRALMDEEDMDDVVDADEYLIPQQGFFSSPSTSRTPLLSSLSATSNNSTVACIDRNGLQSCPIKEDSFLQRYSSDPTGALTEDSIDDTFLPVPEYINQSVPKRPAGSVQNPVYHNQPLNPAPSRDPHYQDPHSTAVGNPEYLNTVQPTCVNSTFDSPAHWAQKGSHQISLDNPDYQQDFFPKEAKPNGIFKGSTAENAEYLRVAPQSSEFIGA
Chain of VEGFR-2 (P35968 20-1356): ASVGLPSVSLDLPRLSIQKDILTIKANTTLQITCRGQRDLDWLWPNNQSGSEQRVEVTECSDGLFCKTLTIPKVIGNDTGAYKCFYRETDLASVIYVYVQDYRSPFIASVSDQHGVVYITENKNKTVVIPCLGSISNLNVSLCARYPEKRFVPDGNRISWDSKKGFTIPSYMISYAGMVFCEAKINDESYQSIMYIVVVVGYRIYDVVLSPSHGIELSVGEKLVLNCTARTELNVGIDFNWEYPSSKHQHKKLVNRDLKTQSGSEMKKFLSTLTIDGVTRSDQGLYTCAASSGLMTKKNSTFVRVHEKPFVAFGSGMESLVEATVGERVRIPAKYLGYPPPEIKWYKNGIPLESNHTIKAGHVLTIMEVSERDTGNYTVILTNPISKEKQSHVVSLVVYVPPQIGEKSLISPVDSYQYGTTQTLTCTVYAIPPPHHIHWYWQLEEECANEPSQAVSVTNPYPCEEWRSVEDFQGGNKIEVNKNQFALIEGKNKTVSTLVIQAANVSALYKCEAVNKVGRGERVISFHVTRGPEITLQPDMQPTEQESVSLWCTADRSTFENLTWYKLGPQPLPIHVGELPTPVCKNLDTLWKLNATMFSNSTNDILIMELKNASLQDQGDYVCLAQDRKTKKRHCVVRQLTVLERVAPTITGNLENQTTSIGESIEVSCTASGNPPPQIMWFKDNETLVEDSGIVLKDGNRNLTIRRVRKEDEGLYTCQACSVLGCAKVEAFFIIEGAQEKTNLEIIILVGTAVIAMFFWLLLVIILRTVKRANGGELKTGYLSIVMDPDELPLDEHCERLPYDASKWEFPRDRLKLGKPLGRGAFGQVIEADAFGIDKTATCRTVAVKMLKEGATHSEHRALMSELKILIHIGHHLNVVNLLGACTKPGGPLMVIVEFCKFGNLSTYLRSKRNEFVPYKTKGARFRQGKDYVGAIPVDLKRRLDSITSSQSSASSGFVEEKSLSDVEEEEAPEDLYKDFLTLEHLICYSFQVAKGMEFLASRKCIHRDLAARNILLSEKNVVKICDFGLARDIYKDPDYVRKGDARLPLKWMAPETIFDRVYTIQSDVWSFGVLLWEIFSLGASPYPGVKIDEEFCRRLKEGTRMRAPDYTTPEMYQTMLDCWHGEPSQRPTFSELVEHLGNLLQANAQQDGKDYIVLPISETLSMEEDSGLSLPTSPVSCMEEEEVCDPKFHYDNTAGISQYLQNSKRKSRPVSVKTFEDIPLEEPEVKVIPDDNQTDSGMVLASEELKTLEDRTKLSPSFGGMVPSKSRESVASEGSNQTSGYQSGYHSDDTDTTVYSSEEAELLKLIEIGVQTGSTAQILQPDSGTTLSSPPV

Compound	Delta (one dose mean graph) [1] [%]	Range (one dose mean graph) [1] [%]	Mean Growth Percent [1] [%]	inhibition at 0.0001 µM [2] [%]	inhibition at 0.001 µM [2] [%]	inhibition at 0.01 µM [2] [%]	inhibition at 0.1 µM [2] [%]	inhibition at 10 µM ([2]; 10 µM single dose) [%]	inhibition at 10 µM [3] [%]	melting point [°C]	% Inhibition Hela Nuclear Extracts [4] [%]	Growth Percent [5]	Growth Percent [6]	Growth Percent [7]	Growth Percent [8]	Growth Percent [9]	Growth Percent [10]	Growth Percent [11]	Growth Percent [12]	Growth Percent [13]	further results
Cc1c(C(=O)NCCCC(=O)NO)sc2ncnc(Nc3ccccc3)c12 [Compound 20b, N-(4-(hydroxyamino)-4-oxobutyl)-5-methyl-4-(phenylamino)thieno[2,3-d]pyrimidine-6-carboxamide]	14.62	40.59	102.91	2	1	7	35	92	25	205	21	99.6% and 99.63%	125.1% and 125.12%	103.3% and 103.32%	104.9% and 104.96%	112.3% and 112.35%	107.3% and 107.35%	103.9% and 103.93%	104.4% and 104.47%	100.2% and 100.23%	inhibition at 1 µM [2]: 85%; IC50 [2]: 155 nM
Cc1c(C(=O)NCCCC(=O)NO)sc2ncnc(Nc3ccc(F)c(Cl)c3)c12 [Compound 20d, 4–(3-chloro-4-fluorophenylamino)-N-(4-(hydroxyamino)-4-oxobutyl)-5-methylthieno[2,3-d]pyrimidine-6-carboxamide]	26.89	47.82	103.21	1	5	14	58	97	20	244 to 246	0	98.9% and 98.94%	122.6% and 122.66%	101.6% and 101.67%	117.4% and 117.47%	102.6%	98.9% and 98.94%	103%	112.6% and 112.64%	99.6% and 99.67%	inhibition at 1 µM [2]: 93%; Mean % inhibition EGFR ([2]; 10 µM single dose): 96%; IC50 [2]: 68 nM
Cc1c(C(=O)NCCCC(=O)NO)sc2ncnc(Nc3ccc(NC(=O)Nc4ccccc4)cc3)c12 [Compound 12a, 1–(4-(6-((4-(hydroxyamino)-4-oxobutyl)carbamoyl)-5-methylthieno[2,3-d]pyrimidin-4-ylamino)phenyl)-3-phenylurea]	25.38	46.43	100.71					11	48	219	2	89.2% and 89.25%	121.6% and 121.69%	101.8% and 101.82%	97.8% and 97.83%	99.0% and 99.09%	99.0% and 99.07%	104.2% and 104.23%	103.9% and 103.98%	100.2%	
